# Results reported in patent US20230357233A1, “HETEROARYL COMPOUNDS, PREPARATION METHODS AND USES THEREOF” (INVENTISBIO CO., LTD., priority 2020, published 2023).
# Biological target: Ba/F3_KRAS^G12D cells (Homo sapiens, UniProt P01116, G12D, cells depend on it)
# Assay: Ba/F3 KRAS^G12D cell proliferation assay (cell-titer Glo)
# Type: cell-based
# Conditions: cell growth inhibition, treated with the compounds for 3 days, read-out: BaF3_KRAS^G12D IC50
# Protocol: Cells were seeded at a density of 5×10^3 per well into 96-well plate and incubated overnight. Serial diluted compounds were added to each well. Cells were treated with the compounds for 3 days, after which cell-titer Glo reagent (Promega #G7572) was used to assess cell proliferation. The luminescence signal was then collected on Tecan Spark plate reader. […] Cell growth inhibition of IC50 is calculated with the equation of Y=Bottom+(Top−Bottom)/(1+10^((LogIC50−X)*HillSlope))
# Sequence of Ba/F3_KRAS^G12D cells (P01116 whole entry G12D): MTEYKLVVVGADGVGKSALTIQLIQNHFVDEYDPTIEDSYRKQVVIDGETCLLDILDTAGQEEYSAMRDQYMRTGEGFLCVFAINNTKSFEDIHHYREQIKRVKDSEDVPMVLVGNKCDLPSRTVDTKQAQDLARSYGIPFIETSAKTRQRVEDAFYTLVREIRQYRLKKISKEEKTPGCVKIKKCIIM
row,SMILES,GI50
1,Cc1cc(-c2nc(OC(C)C)c3c(N4CC5CCC(C4)N5)nc(OC[C@@]45CCCN4C[C@H](F)C5)nc3c2F)c(C(F)(F)F)c(N)n1 [Compound 199],< 0.5 µM
2,C#Cc1c(F)ccc2cc(N)cc(-c3nc(OC(C)C)c4c(N5CC6CCC(C5)N6)nc(OC[C@@]56CCCN5C[C@H](F)C6)nc4c3F)c12 [Compound 200],< 0.5 µM
3,C#Cc1c(F)ccc2cc(N)cc(-c3nc(O)c4c(N5CC6CCC(C5)N6)nc(OC[C@@]56CCCN5C[C@H](F)C6)nc4c3F)c12 [Compound 201],0.5 to 5 µM
4,C#Cc1c(F)ccc2c(F)c(N)cc(-c3nc(OC(C)C)c4c(N5CC6CCC(C5)N6)nc(OC[C@@]56CCCN5C[C@H](F)C6)nc4c3F)c12 [Compound 202],< 0.5 µM
5,C#Cc1c(F)ccc2cc(O)cc(-c3nc(OC(C)C)c4c(N5CC6CCC(C5)N6C)nc(OC[C@@]56CCCN5C[C@H](F)C6)nc4c3F)c12 [Compound 203],< 0.5 µM
6,C#Cc1c(F)ccc2cc(O)cc(-c3nc(OC(C)C)c4c(N5CC6CCC(C5)N6)nc(OC[C@@H]5C[C@H](F)CN5C)nc4c3F)c12 [Compound 204],< 0.5 µM
7,C#Cc1c(F)ccc2cc(N)cc(-c3nc(OC(C)C)c4c(N5CC6CCC(C5)N6)nc(OC[C@@H]5C[C@@H](F)CN5C)nc4c3F)c12 [Compound 206],< 0.5 µM
8,C#Cc1c(F)ccc2cc(N)cc(-c3nc(O)c4c(N5CC6CCC(C5)N6)nc(OC[C@@H]5C[C@@H](F)CN5C)nc4c3F)c12 [Compound 210],0.5 to 5 µM
9,C#Cc1c(F)ccc2cc(O)cc(-c3nc(O)c4c(N5CC6CCC(C5)N6)nc(C(F)F)nc4c3F)c12 [Compound 211],0.5 to 5 µM
10,C#Cc1c(F)ccc2cc(O)cc(-c3nc(OCC)c4c(N5C[C@H]6CC[C@@H](C5)[C@@H]6O)nc(OC[C@@]56CCCN5C[C@H](F)C6)nc4c3F)c12 [Compound 212],< 0.5 µM
11,CCOc1nc(-c2cc(N)cc(F)c2C(F)(F)F)c(F)c2nc(OC[C@@]34CCCN3C[C@H](F)C4)nc(N3CC4CCC(C3)N4)c12 [Compound 213],< 0.5 µM
12,C#Cc1c(F)ccc2cccc(-c3nc(OC)c4c(N5CC6CCC(C5)N6)nc(OC[C@]56CCCN5[C@@H](COC(=O)N(C)C)CC6)nc4c3F)c12 [Compound 216],< 0.5 µM
13,CCc1c(F)ccc2cccc(-c3nc(OC)c4c(N5CC6CCC(C5)N6)nc(OC[C@]56CCCN5[C@@H](COC(=O)N(C)C)CC6)nc4c3F)c12 [Compound 217],< 0.5 µM
14,C#Cc1c(F)ccc2cc(O)cc(-c3nc(OC(C)C)c4c(N5CC6CCC(C5)N6)nc(C)nc4c3F)c12 [Compound 218],< 0.5 µM
15,C#Cc1c(F)ccc2cc(O)cc(-c3nc(OC(C)C)c4c(N5CCNC(C(F)F)C5)nc(OC[C@@]56CCCN5C[C@H](F)C6)nc4c3F)c12 (stereo partly shown) [Compound 220],< 0.5 µM
16,C#Cc1c(F)ccc2cc(O)cc(-c3nc(OCC)c4c(N5CC6CCC(C5)N6)ncnc4c3F)c12 [Compound 221],< 0.5 µM
17,C#Cc1c(F)ccc2cccc(-c3nc(OC(C)C)c4c(N5CC6CCC(C5)N6)nc(OC[C@]56CCCN5[C@@H](COC(=O)N(C)C)CC6)nc4c3F)c12 [Compound 222],< 0.5 µM
18,CCc1c(F)ccc2cccc(-c3nc(OC(C)C)c4c(N5CC6CCC(C5)N6)nc(OC[C@]56CCCN5[C@@H](COC(=O)N(C)C)CC6)nc4c3F)c12 [Compound 223],< 0.5 µM
19,C#Cc1c(F)ccc2cc(O)cc(-c3nc(OC)c4c(N5CC6CCC(C5)N6)nc(OCC5(CN6CCN(C(=O)CCCCCCCCCCCCCCC)CC6)CC5)nc4c3F)c12 [Compound 224],< 0.5 µM
20,C#Cc1c(F)ccc2cc(O)cc(-c3nc(OC(C)C)c4c(N5CC6CCC(C5)N6)nc(OC[C@]56CCCN5[C@@H](COC(=O)N(C)C)CC6)nc4c3F)c12 [Compound 225],< 0.5 µM
21,C#Cc1c(F)ccc2cc(O)cc(-c3nc(OC(C)C)c4c(N5CC6CCC(C5)N6)nc(OC[C@]56CCCN5[C@H](CO)CC6)nc4c3F)c12 [Compound 228],< 0.5 µM
22,C#Cc1c(F)ccc2cc(O)cc(-c3nc(OC(C)C)c4c(N5CC6CCC(C5)N6)nc(OCC5(CN6CCOCC6)CC5)nc4c3F)c12 [Compound 229],< 0.5 µM
23,C#Cc1c(F)ccc2cc(O)cc(-c3nc(OC(C)C)c4c(N5CC6CCC(C5)N6)nc(OCC5(CN6CCN(C(=O)OC)CC6)CC5)nc4c3F)c12 [Compound 232],< 0.5 µM
24,C#Cc1c(F)ccc2cc(O)cc(-c3nc(OC(C)C)c4c(N5CC6CCC(C5)N6)nc(OC[C@@H]5C[C@@H](OC(=O)N(C)C)CN5C)nc4c3F)c12 [Compound 235],< 0.5 µM
25,C#Cc1c(F)ccc2cccc(-c3nc(OCC)c4c(N5CC6CCC(C5)N6)nc(OC[C@]56CCCN5[C@@H](COC(=O)N(C)C)CC6)nc4c3F)c12 [Compound 236],< 0.5 µM

# The remaining lines, values ahead:
row,GI50,SMILES
1,< 0.5 µM,C#Cc1c(F)ccc2cc(O)cc(-c3nc(C4CC4)c4c(N5CC6CCC(C5)N6)ncnc4c3F)c12 [Compound 205]
2,< 0.5 µM,C#Cc1c(F)ccc2cc(N)cc(-c3nc(OC(C)C)c4c(N5CC6CCC(C5)N6)nc(OC[C@@H]5C[C@H](F)CN5C)nc4c3F)c12 [Compound 207]
3,< 0.5 µM,C#Cc1c(F)ccc2cc(N)cc(-c3nc(OC)c4c(N5CC6CCC(C5)N6)nc(OC[C@@H]5C[C@@H](F)CN5C)nc4c3F)c12 [Compound 208]
4,< 0.5 µM,C#Cc1c(F)ccc2cc(N)cc(-c3nc(OC)c4c(N5CC6CCC(C5)N6)nc(OC[C@@H]5C[C@H](F)CN5C)nc4c3F)c12 [Compound 209]
5,0.5 to 5 µM,CCOc1nc(-c2cc(O)cc(F)c2C(F)(F)F)c(F)c2nc(OC[C@@]34CCCN3C[C@H](F)C4)nc(N3CC4CCC(C3)N4)c12 [Compound 214]
6,< 0.5 µM,CCc1c(F)ccc2cc(O)cc(-c3nc(OC)c4c(N5CC6CCC(C5)N6)nc(OC[C@]56CCCN5[C@@H](COC(=O)N(C)C)CC6)nc4c3F)c12 [Compound 215]
7,< 0.5 µM,C#Cc1c(F)ccc2cc(O)cc(-c3nc(OC(C)C)c4c(N5CCNCC(F)(F)C5)nc(OC[C@@]56CCCN5C[C@H](F)C6)nc4c3F)c12 [Compound 219]
8,< 0.5 µM,C#Cc1c(F)ccc2cc(O)cc(-c3nc(OC(C)C)c4c(N5CC6CCC(C5)N6)nc(OC[C@]56CCCN5[C@H](COC(=O)N(C)C)CC6)nc4c3F)c12 [Compound 226]
9,< 0.5 µM,C#Cc1c(F)ccc2cc(O)cc(-c3nc(OC(C)C)c4c(N5CC6CCC(C5)N6)nc(OC[C@]56CCCN5[C@@H](CO)CC6)nc4c3F)c12 [Compound 227]
10,< 0.5 µM,C#Cc1c(F)ccc2cc(O)cc(-c3nc(OC(C)C)c4c(N5CC6CCC(C5)N6)nc(OCC5(CN6CCN(C)CC6)CC5)nc4c3F)c12 [Compound 230]
11,< 0.5 µM,C#Cc1c(F)ccc2cc(O)cc(-c3nc(OC(C)C)c4c(N5CC6CCC(C5)N6)nc(OCC5(CN6CCN(C(C)=O)CC6)CC5)nc4c3F)c12 [Compound 231]
12,< 0.5 µM,C#Cc1c(F)ccc2cc(O)cc(-c3nc(OCC)c4c(N5CC6CCC(C5)N6)nc(OC[C@]56CCCN5[C@@H](COC(=O)N(C)C)CC6)nc4c3F)c12 [Compound 233]
13,< 0.5 µM,C#Cc1c(F)ccc2cc(O)cc(-c3nc(OCC)c4c(N5CC6CCC(C5)N6)nc(OCC5(CN6CCOCC6)CC5)nc4c3F)c12 [Compound 234]
14,< 0.5 µM,CCOc1nc(-c2cccc3ccc(F)c(CC)c23)c(F)c2nc(OC[C@]34CCCN3[C@@H](COC(=O)N(C)C)CC4)nc(N3CC4CCC(C3)N4)c12 [Compound 237]
15,< 0.5 µM,C#Cc1c(F)ccc2cccc(-c3nc(OC(C)C)c4c(N5CC6CCC(C5)N6)nc(OC[C@]56CCCN5[C@@H](CO)CC6)nc4c3F)c12 [Compound 238]
